Experimental data as given in ChEMBL document CHEMBL4219213, “The design, synthesis and structure-activity relationships associated with C28 amine-based betulinic acid derivatives as inhibitors of HIV-1 maturation” (Bioorg Med Chem Lett, 2018).

Assays:
cells = conditions: Human immunodeficiency virus 1, subtype B NL4-3, MT2
in vitro [1] = conditions: human, MT2 cells
Description: Cytotoxicity against human MT2 cells

in vitro [2] = conditions: rat, liver microsomes
Description: Half life in rat liver microsomes at 0.5 uM in presence of NADPH by LC-MS/MS method

in vitro [3] = conditions: human, liver microsomes
Description: Half life in human liver microsomes at 0.5 uM in presence of NADPH by LC-MS/MS method

in vitro [4] = conditions: mouse, liver microsomes
Description: Half life in mouse liver microsomes at 0.5 uM in presence of NADPH by LC-MS/MS method

SMILES	IC50 (cells)	CC50 (in vitro [1])	half-life at 0.5 µM (in vitro [2])	half-life at 0.5 µM (in vitro [3])	half-life at 0.5 µM (in vitro [4])
C=C(C)[C@@H]1CC[C@]2(CNCCCN3CCN(C)CC3)CC[C@]3(C)[C@H](CC[C@@H]4[C@@]5(C)CC=C(c6ccc(C(=O)O)cc6)C(C)(C)[C@@H]5CC[C@]43C)[C@@H]12	16 nM	700 nM	> 2 h	> 2 h	> 2 h
C=C(C)[C@@H]1CC[C@]2(CNCCNCCO)CC[C@]3(C)[C@H](CC[C@@H]4[C@@]5(C)CC=C(c6ccc(C(=O)O)cc6)C(C)(C)[C@@H]5CC[C@]43C)[C@@H]12	20 nM	2000 nM	1.95 h	> 2 h	
C=C(C)[C@@H]1CC[C@]2(CNCCc3ccccn3)CC[C@]3(C)[C@H](CC[C@@H]4[C@@]5(C)CC=C(c6ccc(C(=O)O)cc6)C(C)(C)[C@@H]5CC[C@]43C)[C@@H]12		7400 nM			
C=C(C)[C@@H]1CC[C@]2(CNCCN(CCO)CCO)CC[C@]3(C)[C@H](CC[C@@H]4[C@@]5(C)CC=C(c6ccc(C(=O)O)cc6)C(C)(C)[C@@H]5CC[C@]43C)[C@@H]12	8.4 nM	6800 nM			
C=C(C)[C@@H]1CC[C@]2(C(=O)O)CC[C@]3(C)[C@H](CC[C@@H]4[C@@]5(C)CC=C(c6ccc(C(=O)O)cc6)C(C)(C)[C@@H]5CC[C@]43C)[C@@H]12	> 6000 nM		> 2 h	> 2 h	> 2 h
C=C(C)[C@@H]1CC[C@]2(CNCCN3CCCCC3)CC[C@]3(C)[C@H](CC[C@@H]4[C@@]5(C)CC=C(c6ccc(C(=O)O)cc6)C(C)(C)[C@@H]5CC[C@]43C)[C@@H]12	37 nM	4000 nM			
C=C(C)[C@@H]1CC[C@]2(CNCCCNCCO)CC[C@]3(C)[C@H](CC[C@@H]4[C@@]5(C)CC=C(c6ccc(C(=O)O)cc6)C(C)(C)[C@@H]5CC[C@]43C)[C@@H]12	18 nM	320 nM	> 2 h	> 2 h	
C=C(C)[C@@H]1CC[C@]2(CNCCNC(C)=O)CC[C@]3(C)[C@H](CC[C@@H]4[C@@]5(C)CC=C(c6ccc(C(=O)O)cc6)C(C)(C)[C@@H]5CC[C@]43C)[C@@H]12	37 nM	6300 nM			
C=C(C)[C@@H]1CC[C@]2(CNCCN3CCN(C)CC3)CC[C@]3(C)[C@H](CC[C@@H]4[C@@]5(C)CC=C(c6ccc(C(=O)O)cc6)C(C)(C)[C@@H]5CC[C@]43C)[C@@H]12	14 nM	970 nM			
C=C(C)[C@@H]1CC[C@]2(CNCCN(CC)CC)CC[C@]3(C)[C@H](CC[C@@H]4[C@@]5(C)CC=C(c6ccc(C(=O)O)cc6)C(C)(C)[C@@H]5CC[C@]43C)[C@@H]12	35 nM	20000 nM	1.3 h	> 2 h	> 2 h
C=C(C)[C@@H]1CC[C@]2(CNCCCN3CCCCC3)CC[C@]3(C)[C@H](CC[C@@H]4[C@@]5(C)CC=C(c6ccc(C(=O)O)cc6)C(C)(C)[C@@H]5CC[C@]43C)[C@@H]12	6.4 nM	240 nM	1.37 h	1.32 h	1.5 h
C=C(C)[C@@H]1CC[C@]2(CNCCN(C(C)C)C(C)C)CC[C@]3(C)[C@H](CC[C@@H]4[C@@]5(C)CC=C(c6ccc(C(=O)O)cc6)C(C)(C)[C@@H]5CC[C@]43C)[C@@H]12	35 nM	3700 nM			
C=C(C)[C@@H]1CC[C@]2(CNCCN3CCNCC3)CC[C@]3(C)[C@H](CC[C@@H]4[C@@]5(C)CC=C(c6ccc(C(=O)O)cc6)C(C)(C)[C@@H]5CC[C@]43C)[C@@H]12		2300 nM	1.43 h	> 2 h	
C=C(C)[C@@H]1CC[C@]2(CNCCCO)CC[C@]3(C)[C@H](CC[C@@H]4[C@@]5(C)CC=C(c6ccc(C(=O)O)cc6)C(C)(C)[C@@H]5CC[C@]43C)[C@@H]12	55 nM	4600 nM	> 2 h	> 2 h	
